Laboratory results from patent US8802660B2, “De novo synthesis of glucocorticoids in the epidermis and its uses and applications” (New York University, priority 2007, dated 2014).

Experiments:
[1] = system: skin explant cultures; assay: ELISA assay for cortisol released from skin explant cultures; type: cell-based, human; conditions: for effect on cortisol production (in words): 24 hours, metyrapone 200 μM; for induction of cortisol levels / cortisol production: after 24 hours, ACTH 0.1 μM, progesterone 1 μM
Protocol: (§1) Cells were cultured to 80% of confluency as described above in Example 1(C). 200 μl of the medium was collected at 0, 6, 12, 24, and 48 hours after the switch to basal medium, and cortisol production was measured using ELISA kit (R & D Systems, Minneapolis, Minn.) following commercial protocol.
(§2) To further confirm that keratinocytes produce glucocorticoids de novo, medium was collected from cultured cells grown in the minimal medium in the absence of any alternative GC source as described in Example 1(C). Cortisol production was measured after 0, 6, 12, 24, and 48 hours using the ELISA assay described in Example 1(E). To confirm the production in tissue, the production of cortisol released from skin in explant cultures was measured. As shown in FIG. 3(B), 11.1 ng/ml of cortisol was released by the skin.
(§3) A further experiment was performed where prior to measurement both the keratinocytes and the skin explant cultures were stimulated with 0.1 μM of ACTH. Cortisol production was measured after 24 hours using the ELISA assay described in Example 1(E). […] The addition of 1 μM of progesterone as a substrate for glucocorticoid synthesis lead to a 2.5 fold induction in cortisol production in both cells and skin (FIG. 7B). The addition of 200 μM metyrapone (Sigma) decreased endogenous levels of cortisol production (FIG. 7B).
(§4) To determine if injury-related molecules affect cortisol synthesis, IL-1 or IGF-1 was added to keratinocytes cultured as described in Example 1(C) or skin explants. IL-1 is a primary injury-response pro-inflammatory signal whereas IGF-1 is known to modulate glucocorticoid metabolism (Rappolee et al. (1988) Science 241:708-12). ACTH was used as a positive control. Cortisol levels were measured 24 hours post-treatment using the ELISA assay described in Example 1(E). […] In contract, IGF-1 inhibited cortisol production in both treated cells and tissue (FIG. 8(A)).

[2] = system: acute wounds in human skin specimens; assay: Epithelialization in acute wounding model of human skin (histology); conditions: topical; air-liquid interface for 6 days; metyrapone 200 μM
Excerpt: Human skin specimens were obtained from discarded tissue in reduction mammoplasty following approved Hospital for Special Surgery protocol (#25121). Preparation of tissue with acute wounds was done as previously described (Tomic-Canic et al. (2007) Wound Repair Regen. 15(1):71-9); Stojadinovic et al. (2005) Am. J. Pathol. 167(1):59-69). The adipose tissue was removed, and circular templates of skin were generated using a 6 mm biopsy punch. A 3 mm biopsy punch was used to create an acute wound. The skin specimens were maintained at the air-liquid interface with DMEM (BioWhittaker, Walkersville, Md.) with antibiotics-antimycotics, and fetal bovine serum (FBS) (Gemini Bio-Products, Woodland, Calif.) for 0, 4, 48, and 96 hours in the presence or absence of 1 μM dexamethasone (Sigma, St. Louis, Mo.). Acute wounds were fixed in 4% paraformaldehyde (Sigma) at room temperature overnight, dehydrated with ethanol, cleared in chloroform, and embedded in paraffin.
The effect of glucocorticoids on epithelialization was tested using the acute wounding model described in Example 1(A). The wounded skin was maintained at the air-liquid interface for 6 days. Wounds were maintained in the presence or absence of clobetasol propionate (routinely used by dermatologists in the treatment of inflammatory skin disorders). Healing rates was determined by histology. […]

[3] = system: c-myc; assay: Northern Blot and Western Blot of c-myc in keratinocytes and tissue; type: cell-based, human
Protocol: Keratinocytes were grown to 80% confluency, switched to the basal media for 24 hours, and incubated with 1 mM dexamethasone (Sigma) for 24 and 48 hours. Cells were harvested by trypsinization and cytoplasmic and nuclear fractions were obtained using Nuclear Extract Kit (Active Motif, Carlsbad, Calif.) following commercial protocol. 15 μg of each fraction was separated on a 10% SDS-PAGE gel. The proteins were then transferred to a nitrocellulose membrane (Protran®, Bioscience, Dassel, Germany) using the semi-dry transfer system (BioRad, Hercules, Calif.). Ponceau S was used to check the efficiency of the transfer. […] The membrane was washed 3 times for 5 minutes in TTBS and then incubated at 4° C. overnight with GR antibody (1:500) (Affinity Bioreagents) followed with horseradish […] (HRP) conjugated to anti-rabbit secondary antibody (1:1000) (Santa Cruz Biotech, Santa Cruz, Calif.). Immune complexes were visualized using Super Signal West Pico Chemiluminescent substrate (Pierce, Rockford, Ill.). Immunoblot was exposed on x-ray film (HyBlot CL, Denville, N.J.) according to manufacturer's instruction.
It was also found by Northern Blot analysis using acute wound tissue that c-myc was induced at 96 hours post-wounding (FIG. 11(B)).
Using Western Blot analysis, it was shown that protein levels of c-myc were induced by exogenous glucocorticoid and blocked by metyrapone (FIG. 11(C)).

[4] = system: glucocorticoid receptor; assay: Immunohistochemistry of phosphorylated (hormone-activated) GR in acute wound sections; design: species or system human; conditions: treated acute wound samples
Excerpt: Human skin specimens were obtained from discarded tissue in reduction mammoplasty following approved Hospital for Special Surgery protocol (#25121). […] The adipose tissue was removed, and circular templates of skin were generated using a 6 mm biopsy punch. A 3 mm biopsy punch was used to create an acute wound. […] Acute wounds were fixed in 4% paraformaldehyde (Sigma) at room temperature overnight, dehydrated with ethanol, cleared in chloroform, and embedded in paraffin.
Six μm tissue sections were serially cut on a microtome (HM 315, Carl Zeiss, New York, N.Y.) and mounted on slides. Sections were dewaxed in xylene, re-hydrated and washed with 1× phosphate buffered saline (PBS). For antigen retrieval, paraffin sections were heated in a 95° C. water bath in Target Retrieval Solution (DAKO Corporation, Carpinteria, Calif.). Histological slides were treated with 3% H2O2/30% MeOH for 30 minutes, rinsed with water, and blocked with normal rabbit serum for 30 minutes (Vectastatin Kit Elite ABC, Vectorlabs, Burlingame, Calif.). […] Sections were analyzed using a Carl Zeiss microscope. […]

[5] = system: primary human keratinocytes; assay: ELISA assay for cortisol in medium of cultured keratinocytes; type: cell-based; conditions: for effect on cortisol production (in words) / induction of cortisol levels / cortisol production: keratinocytes; for effect on cortisol production (in words): 24 hours, metyrapone 200 μM; for induction of cortisol levels / cortisol production: after 24 hours, ACTH 0.1 μM, progesterone 1 μM
Protocol: Normal human epidermal keratinocytes were initiated using 3T3 feeder layers as previously described (Randolph and Simon (1993) J. Biol. Chem. 268(13):9198-9205) and frozen in liquid nitrogen until use. Once thawed, the keratinocytes were grown without feeder cells in defined serum-free keratinocyte medium supplemented with epidermal growth factor and bovine pituitary extract (keratinocyte-SFM, GIBCO, Carlsbad, Calif.). Cells were expanded through two 1:4 passages before they were grown to 80% confluency. Cells were washed several times with 1×PBS before they were incubated with basal keratinocyte medium (GIBCO) custom made without hydrocortisone and thyroid hormone.
as §1, §2
as §3, with “Cortisol” for “A further experiment was performed where prior to measurement both the keratinocytes and the skin explant cultures were stimulated with 0.1 μM of ACTH. Cortisol”
as §4

[6] = system: β-catenin; assay: Immunohistochemistry of phosphorylated β-catenin in chronic wound biopsies (diabetic foot ulcers); design: species or system human; conditions: topically applied to chronic wound biopsies
Protocol: Chronic wound tissue was obtained from discarded tissue of biopsies of consenting patients having surgical debridement using approved Columbia University protocol.
Slides were counterstained with hematoxylin. […] Sections were analyzed using a Carl Zeiss microscope. Digital images were taken with Adobe TWAIN—32 program.
It has been previously reported that β-catenin and c-myc participate in inhibition of wound healing and contribute to the impairment of healing in chronic wounds. […] To test if endogenous glucocorticoid participates in β-catenin activation in patients with chronic wounds, metyrapone was topically applied to chronic wound biopsies from patients with diabetic foot ulcers (as described in Example 1(A)). The effects were evaluated by measuring phosphorylation and intracellular translocation of β-catenin by immunohistochemistry as described in Example 1(B), except using an antibody targeting phosphorylated (activated) form of β-catenin (Cell Signaling Technology, Danvers, Mass.). […] As also shown in FIG. 12, this effect can be reversed by the addition of an exogenous glucocorticoid.

[7] = system: CYP11B1; assay: RT-PCR of CYP11B1 expression in treated keratinocytes; type: cell-based, human
Protocol: RNA isolation and purification was performed using Triazol (Invitrogen, Carlsbad, Calif.) extraction and subsequent Qiagen RNeasy Kit column purification (Qiagen, Alameda, Calif.). Reverse transcription and amplification were performed using primers CYP11B1 fw GCTAGACATAGGGGCTCC (SEQ ID no. 1), CYP11B1-rev AGGTGTTTCAGCACATGG (SEQ ID no. 2)and Access RT-PCR Kit (Promega, Madison, Wis.) as follows: (a) reverse transcription—1 cycle at 48° C. for 45 minutes; (b) AMV RT inactivation and RNA/cDNA primer denaturation—1 cycle at 94° C. for 2 minutes; (c) second strand cDNA synthesis and PCR amplification—35 cycles: denaturation for 30 seconds, annealing at 51° C. for 1 minute and extension at 68° C. for 2 minutes; and (d) final extension—1 cycle at 68° C. for 7 minutes. Samples were separated by electrophoresis on 2% agarose gels containing 0.5 μg/ml of ethidium bromide and visualized under UV light.
To elucidate the possible mechanism of regulation involved in these observations, the expression of CYP11B1 was measured using RT-PCR as described in Example 1(G). The expression levels of CYP11B1 corresponded to the cortisol production. IL-1 induced the expression of CYP11B1 similar to ACTH, whereas IGF-1 inhibited its expression (FIG. 8(B)).

Compound	epithelialization / wound closure [2]	effect on cortisol production (in words) [5]	effect on cortisol production (in words) ([1]; skin explants)	induction of cortisol levels / cortisol production [5] [fold]	induction of cortisol levels / cortisol production ([1]; skin explants) [fold]	expression of CYP11B1 (RT-PCR) [7]	further results
[Ca+2].[Cl-].[Cl-] [CaCl2]	–	–	–	–	–	–	effect on cortisol production in the skin ([1]; increased CaCl2 levels): decrease
CCC(=O)O[C@]1(C(=O)CCl)[C@@H](C)C[C@H]2[C@@H]3CCC4=CC(=O)C=C[C@]4(C)[C@@]3(F)[C@@H](O)C[C@@]21C [clobetasol propionate]	completely inhibited epithelialization	–	–	–	–	–	–
CC(C)(C(=O)c1cccnc1)c1cccnc1 [metyrapone]	complete wound closure	decreased	decreased	–	–	–	protein levels of c-myc (Western Blot) [3]: blocked; hormone-activated GR in the nucleus (anti-phospho-Ser211 staining) [4]: absence of GR in the nucleus; β-catenin phosphorylation and nuclearization [6]: abolished
CC(=O)[C@H]1CC[C@H]2[C@@H]3CCC4=CC(=O)CC[C@]4(C)[C@H]3CC[C@]12C [progesterone]	–	–	–	2.5	2.5	–	–
IGF-1: known to modulate glucocorticoid metabolism	–	inhibited	inhibited	–	–	inhibited	–
adrenocorticotropic hormone (SYSMEHFRWGKPVGKKRRPVKVYPNGAEDESAEAFPLEF; Corticotropin; UniProt P01189 138-176, looked up) [ACTH, stimulates synthesis of glucocorticoid]	–	–	–	2.7	2.0	induced	induction of cortisol levels ([5]; keratinocytes in culture, 0.1mM of ACTH): 2.7 fold; induction of cortisol levels ([1]; skin explants, 0.1 μM of ACTH): 2.01 fold
